According to the supplement of paper PMC10331698:
± gives the standard deviation of the averaged measurements.

What was measured:
Assay in all cases: level (log10 ratio to DMSO vehicle control); higher = higher biomarker level / cell amount than vehicle control
Conditions in all cases: in DMSO
[1] = compound: O=C(O)C(F)(F)C(F)(F)C(F)(F)C(F)(F)C(F)(F)C(F)(F)C(F)(F)C(F)(F)C(F)(F)C(F)(F)C(F)(F)C(F)(F)C(F)(F)F [Perfluorotetradecanoic acid]
Procedure: (§1)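 BioMAP Diversity Plus panel of 12 human primary cell co-culture systems (3C, 4H, LPS, SAg, BT, BF4T, BE3C, CASM3C, HDF3CGF, KF3CT, MyoF, Mphg). Compounds were added 1 h before stimulation and left for 24 h (MyoF 48 h; BT 72 h for soluble read-outs or 6 d for IgG). Biomarkers were read by ELISA, cytotoxicity by SRB, PBMC viability and proliferation by Alamar Blue. Each well value was divided by the mean of 8 DMSO control wells on the same plate and log10 transformed; duplicate blinded samples were tested at 4 concentrations.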

1-(Perfluorohexyl)octane = compound: CCCCCCCCC(F)(F)C(F)(F)C(F)(F)C(F)(F)C(F)(F)C(F)(F)F [1-(Perfluorohexyl)octane]
Procedure: as §1

[2] = compound: O=C(O)CCC(F)(F)C(F)(F)C(F)(F)F [3:3 Fluorotelomer carboxylic acid]
Procedure: as §1

Azathioprine = compound: Cn1cnc([N+](=O)[O-])c1Sc1ncnc2[nH]cnc12 [Azathioprine]
Procedure: as §1

[3] = compound: O=C(O)C(F)(F)OC(F)(F)C(F)(F)OC(F)(F)C(F)(F)C(F)(F)C(F)(F)F [Perfluoro-3,6-dioxadecanoic acid]
Procedure: as §1

1H,1H-Heptafluorobutanol = compound: OCC(F)(F)C(F)(F)C(F)(F)F [1H,1H-Heptafluorobutanol]
Procedure: as §1

[4] = compound: C=C(C)C(=O)OCC(F)(F)C(F)(F)C(F)(F)C(F)(F)C(F)(F)C(F)(F)C(F)(F)F
Procedure: as §1

| Test System | level (log10) ([1]; 6700 nM) | level (log10) ([1]; 20000 nM) | level (log10) (1-(Perfluorohexyl)octane; 6700 nM) | level (log10) (1-(Perfluorohexyl)octane; 20000 nM) | level (log10) ([2]; 6700 nM) | level (log10) ([2]; 20000 nM) | level (log10) ([2]; 60000 nM) | level (log10) (Azathioprine; 1400 nM) | level (log10) (Azathioprine; 4200 nM) | level (log10) (Azathioprine; 13000 nM) | level (log10) (Azathioprine; 38000 nM) | level (log10) ([3]; 6700 nM) | level (log10) ([3]; 20000 nM) | level (log10) ([3]; 60000 nM) | level (log10) (1H,1H-Heptafluorobutanol; 6700 nM) | level (log10) (1H,1H-Heptafluorobutanol; 20000 nM) | level (log10) (1H,1H-Heptafluorobutanol; 60000 nM) | level (log10) ([4]; 6700 nM) | level (log10) ([4]; 20000 nM) |
| --- | --- | --- | --- | --- | --- | --- | --- | --- | --- | --- | --- | --- | --- | --- | --- | --- | --- | --- | --- |
| 3C:CCL2/MCP-1 | 0.0125 ± 0.012 | 0.0085 ± 0.018 | -0.008 ± 0.0014 | 0.0205 ± 0.023 | -0.011 ± 0.013 | -0.0025 ± 0.005 | 0.022 ± 0.037 | 0.0095 ± 0.0064 | -0.006 | 0.009 ± 0.0014 | -0.0165 ± 0.015 | 0.002 ± 0.0099 | 0.013 ± 0.0057 | 0.0195 ± 0.023 | -0.001 | -0.0055 ± 0.012 | 0.007 ± 0.028 | -0.013 ± 0.0042 | 0.018 ± 0.025 |
| 3C:CD54/ICAM-1 | -0.0005 ± 0.0078 | -0.0045 ± 0.013 | 0.0025 ± 0.013 | 0.0165 ± 0.005 | -0.019 ± 0.0099 | -0.009 ± 0.023 | -0.0015 ± 0.023 | 0.0035 ± 0.005 | -0.014 ± 0.031 | -0.0085 ± 0.0092 | -0.016 ± 0.013 | -0.003 ± 0.028 | -0.0025 ± 0.018 | 0.019 ± 0.011 | 0.0095 ± 0.0064 | 0.003 ± 0.0085 | 0.0075 ± 0.0064 | 0.019 ± 0.028 | 0.014 ± 0.018 |
| 3C:CD62E/E-Selectin | -0.0245 ± 0.029 | -0.0105 ± 0.00071 | -0.0065 ± 0.011 | -0.02 ± 0.0071 | -0.006 ± 0.0042 | 0.001 ± 0.013 | 0.006 ± 0.0071 | -0.0005 ± 0.012 | -0.013 ± 0.03 | -0.033 ± 0.0099 | -0.0015 ± 0.0078 | 0.0155 ± 0.043 | -0.001 ± 0.037 | 0.004 ± 0.052 | -0.006 ± 0.0028 | -0.0025 ± 0.0035 | 0.015 ± 0.016 | 0.0095 ± 0.023 | 0.0075 ± 0.0092 |
| 3C:CD106/VCAM-1 | -0.014 ± 0.016 | -0.0155 ± 0.0078 | -0.009 ± 0.0057 | 0.0045 ± 0.0092 | -0.0135 ± 0.022 | -0.028 ± 0.024 | -0.019 ± 0.0085 | 0.006 ± 0.017 | -0.0165 ± 0.0078 | -0.0245 ± 0.022 | -0.0595 ± 0.036 | 0.0005 ± 0.013 | -0.0035 ± 0.019 | -0.0135 ± 0.021 | 0.008 ± 0.033 | 0.018 ± 0.025 | 0.001 ± 0.037 | -0.0145 ± 0.005 | -0.0025 ± 0.018 |
| 3C:CD141/Thrombomodulin | -0.0165 ± 0.036 | -0.024 ± 0.042 | 0.0125 ± 0.015 | -0.0105 ± 0.018 | -0.0105 ± 0.011 | -0.018 ± 0.047 | -0.006 ± 0.013 | -0.0275 ± 0.026 | -0.0055 ± 0.036 | -0.041 ± 0.065 | -0.0855 ± 0.049 | -0.014 ± 0.048 | -0.0345 ± 0.039 | -0.016 ± 0.04 | -0.0025 ± 0.018 | -0.005 ± 0.0042 | 0.0195 ± 0.005 | -0.038 ± 0.0057 | -0.0015 ± 0.032 |
| 3C:CD142/Tissue Factor | 0.0275 ± 0.0078 | 0.0665 ± 0.018 | -0.0025 ± 0.0078 | 0.0215 ± 0.023 | -0.024 ± 0.0014 | 0.0015 ± 0.0078 | 0.0275 ± 0.011 | 0.02 ± 0.024 | 0.0255 ± 0.046 | 0.042 ± 0.051 | 0.042 ± 0.02 | -0.0245 ± 0.059 | 0.0095 ± 0.015 | -0.074 ± 0.024 | -0.0065 ± 0.021 | 0.0105 ± 0.015 | 0.026 ± 0.025 | -0.022 ± 0.058 | -0.005 ± 0.051 |
| BE3C:Keratin 8/18 | -0.004 ± 0.03 | -0.011 ± 0.045 | 0.011 ± 0.0071 | 0.004 ± 0.054 | 0.0025 ± 0.0021 | -0.003 ± 0.0042 | -0.023 ± 0.0057 | -0.009 ± 0.033 | 0.012 ± 0.014 | -0.02 ± 0.047 | -0.0095 ± 0.021 | -0.0075 ± 0.013 | -0.0135 ± 0.026 | 0.027 ± 0.0042 | -0.023 ± 0.041 | 0.0035 ± 0.019 | -0.009 ± 0.037 | -0.008 ± 0.017 | -0.028 ± 0.027 |
| BE3C:MMP-1 | 0.015 ± 0.025 | 0.0505 ± 0.059 | 0.0155 ± 0.018 | 0.0395 ± 0.053 | -0.006 ± 0.037 | -0.0235 ± 0.011 | 0.0125 ± 0.044 | -0.0025 ± 0.013 | 0.001 ± 0.0057 | -0.0235 ± 0.019 | -0.0645 ± 0.0021 | 0.067 ± 0.0014 | 0.172 ± 0.0035 | 0.355 ± 0.021 | 0.0035 ± 0.0078 | -0.015 ± 0.02 | 0.0025 ± 0.028 | 0.02 ± 0.021 | 0.0655 ± 0.064 |
| BE3C:MMP-9 | -0.033 ± 0.071 | -0.04 ± 0.065 | -0.0065 ± 0.0021 | -0.005 ± 0.0057 | -0.0025 ± 0.022 | 0.0085 ± 0.0078 | -0.0085 ± 0.025 | 0.0075 ± 0.046 | 0.0285 ± 0.04 | -0.0135 ± 0.03 | -0.0485 ± 0.028 | -0.005 ± 0.0099 | 0.007 ± 0.031 | -0.0195 ± 0.0021 | 0.002 ± 0.0042 | 0.0015 ± 0.0064 | 0.0175 ± 0.033 | 0 ± 0.0042 | -0.0005 ± 0.0092 |
| BE3C:PAI-I | 0.007 ± 0.058 | -0.0175 ± 0.064 | -0.025 ± 0.0057 | -0.024 | -0.0095 ± 0.00071 | -0.0025 ± 0.015 | 0.0005 ± 0.0078 | -0.0235 ± 0.044 | 0.015 ± 0.042 | 0.003 ± 0.05 | -0.071 ± 0.03 | 0.0345 ± 0.021 | 0.009 ± 0.031 | -0.11 ± 0.005 | -0.0285 ± 0.0078 | -0.0185 ± 0.03 | -0.0115 ± 0.0035 | 0.0055 ± 0.0078 | 0.0105 ± 0.018 |
| BE3C:SRB | -0.005 ± 0.0057 | 0.0035 ± 0.012 | -0.0005 ± 0.0021 | 0.002 ± 0.0028 | -0.0065 ± 0.0064 | -0.0065 ± 0.005 | 0.001 ± 0.013 | 0.013 ± 0.016 | -0.005 | -0.0095 ± 0.0078 | -0.0045 ± 0.0092 | -0.0015 ± 0.0064 | -0.0095 ± 0.013 | -0.0435 ± 0.022 | -0.0115 ± 0.0078 | -0.0045 ± 0.011 | -0.0005 ± 0.0064 | -0.0015 ± 0.0021 | -0.0025 ± 0.00071 |
| BE3C:tPA | 0.04 ± 0.075 | 0.0035 ± 0.06 | -0.0015 ± 0.03 | 0 ± 0.033 | -0.0195 ± 0.0035 | -0.03 ± 0.016 | -0.0365 ± 0.015 | -0.005 ± 0.078 | -0.0285 ± 0.083 | -0.108 ± 0.083 | -0.236 ± 0.079 | -0.0345 ± 0.029 | -0.09 ± 0.04 | -0.156 ± 0.018 | -0.019 ± 0.021 | -0.0125 ± 0.061 | 0.0005 ± 0.005 | -0.013 ± 0.0014 | 0.007 |
| BE3C:uPA | -0.0075 ± 0.05 | -0.0085 ± 0.056 | -0.0145 ± 0.012 | -0.0145 ± 0.0092 | -0.0045 ± 0.023 | -0.018 ± 0.017 | -0.0115 ± 0.0021 | -0.0025 ± 0.016 | 0 ± 0.013 | -0.0115 ± 0.019 | -0.041 ± 0.016 | 0.006 ± 0.025 | -0.0045 ± 0.025 | -0.003 ± 0.011 | -0.0035 ± 0.005 | 0.015 ± 0.011 | 0.002 ± 0.0028 | -0.008 ± 0.011 | -0.004 ± 0.021 |
| CASM3C:CCL2/MCP-1 | -0.0615 ± 0.036 | -0.03 ± 0.021 | -0.0065 ± 0.018 | 0.001 ± 0.0042 | -0.011 ± 0.021 | -0.015 ± 0.0028 | -0.0135 ± 0.022 | 0.0135 ± 0.044 | -0.012 ± 0.014 | -0.0195 ± 0.021 | -0.001 ± 0.052 | -0.012 ± 0.0085 | -0.0175 ± 0.013 | 0.043 ± 0.069 | 0.006 ± 0.0099 | 0.006 ± 0.0057 | 0.0095 ± 0.026 | -0.015 ± 0.0042 | 0.007 ± 0.018 |
| CASM3C:CD87/uPAR | -0.0305 ± 0.057 | -0.0375 ± 0.026 | -0.0175 ± 0.0078 | -0.005 ± 0.011 | -0.01 ± 0.0071 | 0.002 ± 0.011 | -0.01 ± 0.018 | 0.0115 ± 0.0021 | 0.014 ± 0.0099 | -0.002 ± 0.067 | -0.0325 ± 0.0035 | 0.001 ± 0.0014 | -0.0055 ± 0.0064 | -0.0175 ± 0.025 | -0.0045 ± 0.026 | -0.013 ± 0.016 | 0.015 ± 0.011 | 0.0005 ± 0.0035 | 0.003 ± 0.023 |
